Results reported in ChEMBL document CHEMBL1201862, “PubChem BioAssay data set” (2004).
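Five concentrations, 48 hours, 96-well plates. GI50 is the concentration that inhibits growth by half.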 Activity calls are given as the source filed them. No stated cut-off is given here; in the data, active = GI50 up to about 1.1 µM and inactive = higher.

Assays:
Experiment in all cases: DTP human tumour cell line panel, 48 h
HCT-116 = test system: HCT-116
T47D = test system: T47D
K562 = test system: K562
RPMI-8226 = test system: RPMI-8226
UO-31 = test system: UO-31
ACHN = test system: ACHN
OVCAR-3 = test system: OVCAR-3
SF-268 = test system: SF-268
NCI-H23 = test system: NCI-H23
SN12C = test system: SN12C
PC-3 = test system: PC-3
SK-MEL-28 = test system: SK-MEL-28
CAKI-1 = test system: CAKI-1
MDA-MB-435 = test system: MDA-MB-435
MCF7 = test system: MCF7
A498 = test system: A498
CCRF-CEM = test system: CCRF-CEM
IGROV-1 = test system: IGROV-1
SR = test system: SR
NCI-H522 = test system: NCI-H522

Measured: GI50

O=[N+]([O-])/C(C(Cl)=C(Cl)Cl)=C(\Nc1cccc2cccnc12)SCc1ccccc1
inactive: HCT-116 19.8 µM | T47D 17.7 µM | K562 13.4 µM | RPMI-8226 22.3 µM | UO-31 18.3 µM | ACHN 23.3 µM | OVCAR-3 15.5 µM | SF-268 17.3 µM | NCI-H23 17 µM | SN12C 25.3 µM | PC-3 14.8 µM | SK-MEL-28 19 µM | CAKI-1 20.7 µM | MDA-MB-435 21 µM | MCF7 15.3 µM | A498 26.7 µM | CCRF-CEM 14.9 µM

O=[N+]([O-])c1ccc2c(c1)S(=O)(=O)N1Cc3ccccc3CCN21
inactive: HCT-116 > 100 µM | K562 > 100 µM | RPMI-8226 > 100 µM | UO-31 > 100 µM | ACHN > 100 µM | IGROV-1 > 100 µM | OVCAR-3 48.8 µM | SF-268 40.7 µM | SR > 100 µM | NCI-H23 > 100 µM | SN12C > 100 µM | PC-3 > 100 µM | SK-MEL-28 > 100 µM | CAKI-1 > 100 µM | NCI-H522 > 100 µM | MDA-MB-435 > 100 µM | MCF7 > 100 µM | A498 > 100 µM | CCRF-CEM > 100 µM

c1ccc(CSC2(SCc3ccccc3)CCCCC2)cc1
inactive: HCT-116 > 10 µM | T47D > 10 µM | K562 > 10 µM | RPMI-8226 > 10 µM | UO-31 > 10 µM | ACHN > 10 µM | IGROV-1 > 10 µM | OVCAR-3 > 10 µM | SF-268 > 10 µM | SR > 10 µM | NCI-H23 > 10 µM | SN12C > 10 µM | PC-3 > 10 µM | SK-MEL-28 > 10 µM | CAKI-1 > 10 µM | NCI-H522 > 10 µM | MCF7 > 10 µM | A498 > 10 µM | CCRF-CEM > 10 µM

CC1CC(N2CCOCC2)=Nc2ccccc2N1Cc1ccccc1 (stereo unspecified)
inactive: HCT-116 > 100 µM | K562 19 µM | RPMI-8226 48.2 µM | UO-31 > 100 µM | ACHN > 100 µM | IGROV-1 25.6 µM | OVCAR-3 43.9 µM | SF-268 74 µM | NCI-H23 > 100 µM | SN12C > 100 µM | PC-3 50.6 µM | SK-MEL-28 49.1 µM | CAKI-1 25.2 µM | NCI-H522 46.5 µM | MDA-MB-435 56.2 µM | A498 20.5 µM | CCRF-CEM > 100 µM

NC(Cc1ccccc1)P(=O)(O)O (stereo unspecified)
inactive: HCT-116 > 100 µM | T47D > 100 µM | K562 > 100 µM | RPMI-8226 > 100 µM | UO-31 > 100 µM | ACHN > 100 µM | IGROV-1 > 100 µM | OVCAR-3 > 100 µM | SF-268 > 100 µM | SR > 100 µM | NCI-H23 > 100 µM | SN12C > 100 µM | PC-3 > 100 µM | SK-MEL-28 > 100 µM | CAKI-1 > 100 µM | NCI-H522 > 100 µM | MDA-MB-435 > 100 µM | A498 > 100 µM | CCRF-CEM > 100 µM

CCOC(=O)C(Cc1ccccc1)(Cc1ccc(O)cn1)NC(=O)c1ccccc1 (stereo unspecified)
inactive: HCT-116 24.7 µM | K562 29.7 µM | RPMI-8226 25.9 µM | UO-31 29.6 µM | ACHN 35.8 µM | IGROV-1 22.6 µM | OVCAR-3 19.2 µM | SF-268 17.7 µM | SR 6.56 µM | NCI-H23 32.8 µM | PC-3 18.5 µM | SK-MEL-28 36.5 µM | CAKI-1 26.2 µM | NCI-H522 15.6 µM | MDA-MB-435 9.51 µM | MCF7 22.3 µM | CCRF-CEM 7.03 µM

CC(C)C(=O)NS(=O)(=O)c1ccccc1
inactive: HCT-116 > 100 µM | K562 > 100 µM | RPMI-8226 > 100 µM | UO-31 > 100 µM | ACHN > 100 µM | IGROV-1 > 100 µM | OVCAR-3 > 100 µM | SF-268 > 100 µM | SR > 100 µM | NCI-H23 > 100 µM | SN12C > 100 µM | SK-MEL-28 > 100 µM | CAKI-1 > 100 µM | NCI-H522 > 100 µM | A498 > 100 µM | CCRF-CEM > 100 µM

COC(=O)C1=C(C(=O)OC)SC(=CC#CC=C2SC(C(=O)OC)=C(C(=O)OC)S2)S1
inactive: HCT-116 11.7 µM | K562 > 87.5 µM | RPMI-8226 > 100 µM | UO-31 3.51 µM | ACHN 11.8 µM | IGROV-1 18.2 µM | OVCAR-3 5.94 µM | SF-268 > 32.4 µM | SR > 100 µM | NCI-H23 5.81 µM | SN12C 13.5 µM | SK-MEL-28 18.4 µM | CAKI-1 25.5 µM | NCI-H522 24.4 µM | A498 19.4 µM | CCRF-CEM > 100 µM

O=C(C[N+]12CN3CN(CN(C3)C1)C2)c1ccc(-c2ccccc2)cc1
inactive: HCT-116 18.8 µM | T47D 37.2 µM | K562 15 µM | UO-31 23.4 µM | ACHN 21.4 µM | IGROV-1 24.3 µM | OVCAR-3 29.3 µM | SF-268 19.4 µM | SR 3.2 µM | NCI-H23 23.3 µM | SN12C 19.7 µM | PC-3 16 µM | SK-MEL-28 17.6 µM | CAKI-1 43.9 µM | NCI-H522 19.3 µM | MDA-MB-435 36.5 µM | A498 19.6 µM | CCRF-CEM 1.71 µM

N#CCc1nc(O)c2ccccc2n1
inactive: HCT-116 > 100 µM | T47D 50.6 µM | UO-31 > 100 µM | ACHN > 100 µM | IGROV-1 > 100 µM | OVCAR-3 69.7 µM | NCI-H23 > 100 µM | SN12C > 100 µM | PC-3 > 100 µM | SK-MEL-28 > 100 µM | CAKI-1 > 100 µM | MDA-MB-435 > 100 µM | MCF7 28.1 µM

NCCCCCNOCCCN
inactive: HCT-116 > 100 µM | T47D > 100 µM | K562 > 100 µM | RPMI-8226 > 100 µM | UO-31 > 100 µM | ACHN > 100 µM | IGROV-1 > 100 µM | OVCAR-3 > 100 µM | SF-268 > 100 µM | SR > 100 µM | NCI-H23 > 100 µM | SN12C > 100 µM | PC-3 > 100 µM | SK-MEL-28 > 100 µM | NCI-H522 > 100 µM | MDA-MB-435 > 100 µM | CCRF-CEM > 100 µM

Cc1cc(Cl)ccc1OCC(=O)Oc1c(Cl)c(Cl)c(Cl)c(Cl)c1Cl
inactive: HCT-116 20.8 µM | K562 35.2 µM | RPMI-8226 21.9 µM | UO-31 17.1 µM | ACHN 28.2 µM | IGROV-1 17.4 µM | OVCAR-3 18.2 µM | SF-268 30.5 µM | SR 17.7 µM | NCI-H23 26.4 µM | SN12C 25.4 µM | PC-3 28.2 µM | SK-MEL-28 27.7 µM | CAKI-1 33 µM | NCI-H522 17.9 µM | MDA-MB-435 24.2 µM | MCF7 26.8 µM | A498 25.6 µM
